Experimental data from patent US11739098B2 (BRISTOL-MYERS SQUIBB COMPANY, priority 2017, dated 2023).

Assays:
Assay type in all cases: cell-based
human TLR8 = target: T1, human TLR8 (Homo sapiens, UniProt Q9NR97); experiment: TLR8 inhibition reporter assay (HEK-Blue cells, SEAP reporter, R848 stimulation); conditions: HEK-Blue cells overexpressing human TLR8, SEAP reporter, R848 15.9 μM
T1 construct: host or cells: HEK-Blue cells (HEK293-derived reporter line)
T1 sequence (Q9NR97 27-1041): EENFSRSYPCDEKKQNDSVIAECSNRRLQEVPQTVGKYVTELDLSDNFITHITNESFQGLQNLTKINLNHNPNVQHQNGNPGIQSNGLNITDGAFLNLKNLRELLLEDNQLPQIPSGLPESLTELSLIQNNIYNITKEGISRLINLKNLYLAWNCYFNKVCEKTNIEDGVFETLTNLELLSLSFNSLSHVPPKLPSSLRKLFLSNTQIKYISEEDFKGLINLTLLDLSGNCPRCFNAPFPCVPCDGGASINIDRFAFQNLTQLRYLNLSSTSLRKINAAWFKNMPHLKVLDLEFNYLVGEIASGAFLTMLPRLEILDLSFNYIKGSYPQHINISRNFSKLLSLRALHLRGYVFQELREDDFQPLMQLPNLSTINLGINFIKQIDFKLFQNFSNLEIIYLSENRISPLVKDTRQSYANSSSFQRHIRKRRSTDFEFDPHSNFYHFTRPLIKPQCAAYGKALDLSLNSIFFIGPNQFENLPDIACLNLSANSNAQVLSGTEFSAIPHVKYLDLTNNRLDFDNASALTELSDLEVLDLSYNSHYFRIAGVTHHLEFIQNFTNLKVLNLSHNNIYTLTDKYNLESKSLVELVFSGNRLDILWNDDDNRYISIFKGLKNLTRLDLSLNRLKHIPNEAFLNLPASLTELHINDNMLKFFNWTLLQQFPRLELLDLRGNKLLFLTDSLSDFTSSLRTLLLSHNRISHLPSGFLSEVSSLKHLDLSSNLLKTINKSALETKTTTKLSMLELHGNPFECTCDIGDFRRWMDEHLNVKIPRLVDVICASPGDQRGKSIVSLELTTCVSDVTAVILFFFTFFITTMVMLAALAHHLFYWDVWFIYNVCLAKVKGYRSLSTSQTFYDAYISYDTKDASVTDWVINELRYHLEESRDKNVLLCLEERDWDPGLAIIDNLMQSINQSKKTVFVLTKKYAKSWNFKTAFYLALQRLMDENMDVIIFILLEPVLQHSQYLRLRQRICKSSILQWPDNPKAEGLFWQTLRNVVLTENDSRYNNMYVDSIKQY
Summary of the method: (§1)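 Percent inhibition of agonist-induced SEAP secretion in HEK-Blue cells after 22 h at 37 °C. Stimuli: 7.5 μM gardiquimod, 15.9 μM R848, 5 nM ODN2006 for TLR7, TLR8 and TLR9, added after 30 min compound exposure over a 0.05 nM–50 μM range.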

human TLR7 = target: T2, human TLR7 (Homo sapiens, UniProt Q9NYK1); experiment: TLR7 inhibition reporter assay (HEK-Blue cells, SEAP reporter, gardiquimod stimulation); conditions: HEK-Blue cells overexpressing human TLR7, SEAP reporter, gardiquimod 7.5 μM
T2 construct: host or cells: HEK-Blue cells (HEK293-derived reporter line)
T2 sequence (Q9NYK1 27-1049): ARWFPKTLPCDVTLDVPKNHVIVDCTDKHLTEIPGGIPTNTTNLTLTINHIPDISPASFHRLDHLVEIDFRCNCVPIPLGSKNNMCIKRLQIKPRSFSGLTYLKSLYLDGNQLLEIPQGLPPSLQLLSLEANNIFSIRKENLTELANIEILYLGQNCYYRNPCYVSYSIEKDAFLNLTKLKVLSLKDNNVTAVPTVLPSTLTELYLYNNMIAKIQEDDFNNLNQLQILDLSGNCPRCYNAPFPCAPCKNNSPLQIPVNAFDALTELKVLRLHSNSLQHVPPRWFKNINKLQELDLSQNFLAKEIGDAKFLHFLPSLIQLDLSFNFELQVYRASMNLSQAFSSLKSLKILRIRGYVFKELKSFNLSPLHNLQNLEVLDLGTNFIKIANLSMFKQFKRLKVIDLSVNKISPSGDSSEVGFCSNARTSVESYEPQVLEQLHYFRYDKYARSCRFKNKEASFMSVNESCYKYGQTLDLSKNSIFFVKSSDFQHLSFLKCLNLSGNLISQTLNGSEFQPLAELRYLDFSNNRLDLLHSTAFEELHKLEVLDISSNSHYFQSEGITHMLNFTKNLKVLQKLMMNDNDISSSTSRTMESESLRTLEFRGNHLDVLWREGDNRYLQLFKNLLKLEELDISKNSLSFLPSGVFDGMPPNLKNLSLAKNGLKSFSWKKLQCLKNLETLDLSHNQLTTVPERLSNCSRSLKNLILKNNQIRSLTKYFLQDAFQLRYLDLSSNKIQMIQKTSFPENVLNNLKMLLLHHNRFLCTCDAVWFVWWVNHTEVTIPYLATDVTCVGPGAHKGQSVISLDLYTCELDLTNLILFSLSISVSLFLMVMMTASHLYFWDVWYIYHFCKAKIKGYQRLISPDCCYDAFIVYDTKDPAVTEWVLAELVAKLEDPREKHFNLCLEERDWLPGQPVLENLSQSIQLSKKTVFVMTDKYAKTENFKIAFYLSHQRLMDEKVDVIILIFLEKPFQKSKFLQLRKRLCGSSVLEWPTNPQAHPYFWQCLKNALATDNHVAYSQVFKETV
Summary of the method: as §1

human TLR9 = target: T3, human TLR9 (Homo sapiens, UniProt Q9NR96); experiment: TLR9 inhibition reporter assay (HEK-Blue cells, SEAP reporter, ODN2006 stimulation); conditions: HEK-Blue cells overexpressing human TLR9, SEAP reporter, ODN2006 5 nM
T3 construct: host or cells: HEK-Blue cells (HEK293-derived reporter line)
T3 sequence (Q9NR96 26-1032): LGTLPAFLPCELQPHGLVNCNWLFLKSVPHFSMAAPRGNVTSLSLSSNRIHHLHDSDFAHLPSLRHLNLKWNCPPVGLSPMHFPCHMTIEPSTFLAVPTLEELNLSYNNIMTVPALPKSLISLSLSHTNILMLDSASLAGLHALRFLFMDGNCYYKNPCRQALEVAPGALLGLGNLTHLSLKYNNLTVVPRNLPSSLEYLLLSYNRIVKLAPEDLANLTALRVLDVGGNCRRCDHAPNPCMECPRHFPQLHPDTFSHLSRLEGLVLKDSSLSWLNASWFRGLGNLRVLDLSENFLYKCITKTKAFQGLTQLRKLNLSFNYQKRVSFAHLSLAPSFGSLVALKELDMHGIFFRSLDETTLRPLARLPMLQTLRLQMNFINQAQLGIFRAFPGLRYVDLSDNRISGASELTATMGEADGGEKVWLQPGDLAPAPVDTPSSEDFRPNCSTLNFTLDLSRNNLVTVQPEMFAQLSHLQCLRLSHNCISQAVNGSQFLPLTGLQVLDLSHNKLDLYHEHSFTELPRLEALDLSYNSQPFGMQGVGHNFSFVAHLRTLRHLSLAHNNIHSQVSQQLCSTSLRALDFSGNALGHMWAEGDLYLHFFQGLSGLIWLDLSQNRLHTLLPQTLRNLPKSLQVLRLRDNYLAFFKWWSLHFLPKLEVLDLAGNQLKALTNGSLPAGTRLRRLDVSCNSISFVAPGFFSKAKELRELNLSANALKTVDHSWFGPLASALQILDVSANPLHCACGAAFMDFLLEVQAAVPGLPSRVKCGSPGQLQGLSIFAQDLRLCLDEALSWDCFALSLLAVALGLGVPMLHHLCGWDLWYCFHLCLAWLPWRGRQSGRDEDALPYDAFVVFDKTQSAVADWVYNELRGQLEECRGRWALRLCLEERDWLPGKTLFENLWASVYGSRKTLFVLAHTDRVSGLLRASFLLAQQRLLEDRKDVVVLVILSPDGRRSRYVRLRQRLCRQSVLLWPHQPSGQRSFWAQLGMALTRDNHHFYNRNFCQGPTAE
Summary of the method: as §1

Row | SMILES | IC50 (human TLR8) | IC50 (human TLR7) | IC50 (human TLR9)
1 | Cc1cn2cc(-c3[nH]c4ccc(C5CCN(C(=O)C[C@H](C)O)CC5)cc4c3CC(F)F)ccc2n1 [Example 608, (S)-1-(4-(3-(2,2-difluoroethyl)-2-(2-methylimidazo[1,2-a]pyridin-6-yl)-1H-indol-5-yl)piperidin-1-yl)-3-hydroxybutan-1-one] | > 3130 nM | 100 to 1000 nM | 1000 to 50000 nM
2 | CC(C)c1c(-c2cc(N)nc3[nH]cnc23)[nH]c2ccc(C3CCNCC3)cc12 [Example 228, 7-(3-isopropyl-5-(piperidin-4-yl)-1H-indol-2-yl)-3H-imidazo[4,5-b]pyridin-5-amine] | < 100 nM | < 100 nM | 100 to 1000 nM
3 | CC(C)c1c(-c2coc3cccnc23)[nH]c2ccc(C3CCNCC3)cc12 [Example 20, 3-(3-isopropyl-5-(piperidin-4-yl)-1H-indol-2-yl)furo[3,2-b] pyridine] | > 3130 nM | > 3130 nM | 1000 to 50000 nM
4 | COC(=O)c1c(-c2ccnc3[nH]ncc23)[nH]c2ccc(C3CCNCC3)cc12 [Example 174, methyl 5-(piperidin-4-yl)-2-(1H-pyrazolo[3,4-b]pyridin-4-yl)-1H-indole-3-carboxylate] | 1000 to 50000 nM | > 50000 nM | 1000 to 50000 nM
5 | CC(C)c1c(-c2cnc3cnccn23)[nH]c2ccc(C3CCN(CC(=O)N(C)C)CC3)cc12 [Example 426, 2-(4-(2-(imidazo[1,2-a]pyrazin-3-yl)-3-isopropyl-1H-indol-5-yl)piperidin-1-yl)-N,N-dimethylacetamide] | 1000 to 50000 nM | > 3130 nM | 1000 to 50000 nM
6 | CC(C)c1c(-c2cccn3ncnc23)[nH]c2ccc(C3CCNCC3)cc12 [Example 196, 8-(3-isopropyl-5-(piperidin-4-yl)-1H-indol-2-yl)-[1,2,4]triazolo[1,5-a]pyridine] | < 100 nM | < 100 nM | 1000 to 50000 nM
7 | Cc1c(-c2[nH]c3ccc(C4CCNCC4)cc3c2C(C)C)cn2ccnc2c1C [Example 271, 6-(3-isopropyl-5-(piperidin-4-yl)-1H-indol-2-yl)-7,8-dimethylimidazo[1,2-a]pyridine] | < 100 nM | < 100 nM | 100 to 1000 nM
8 | CC(C)c1c(-c2ccc3ncsc3c2)[nH]c2ccc(C3CCN(CC(=O)N(C)C)CC3)cc12 [Example 298, 2-(4-(2-(benzo[d]thiazol-6-yl)-3-isopropyl-1H-indol-5-yl)piperidin-1-yl)-N,N-dimethylacetamide] | < 100 nM | < 100 nM | 1000 to 50000 nM
9 | Cc1cc(-c2[nH]c3ccc(C4CCN(C(=O)CN(C)C)CC4)cc3c2C(C)C)cn2nncc12 [Example 467, 2-(dimethylamino)-1-(4-(3-isopropyl-2-(4-methyl-[1,2,3]triazolo[1,5-a]pyridin-6-yl)-1H-indol-5-yl)piperidin-1-yl)ethan-1-one] | 1000 to 50000 nM | 100 to 1000 nM | 1000 to 50000 nM
10 | CC(C)c1c(-c2ccn3ccnc3c2)[nH]c2ccc(C3CCNCC3)cc12 [Example 203, 7-(3-isopropyl-5-(piperidin-4-yl)-1H-indol-2-yl)imidazo[1,2-a]pyridine] | < 100 nM | < 100 nM | 100 to 1000 nM

Now from value to compound:

Row | IC50 (human TLR8) | IC50 (human TLR7) | IC50 (human TLR9) | SMILES
11 | < 100 nM | < 100 nM | 1000 to 50000 nM | Cc1ccnc2c1c(-c1[nH]c3ccc(C4CCN(C5CCOCC5)CC4)cc3c1C(C)C)cn2C [Example 689, 3-(3-isopropyl-5-(1-(tetrahydro-2H-pyran-4-yl)piperidin-4-yl)-1H-indol-2-yl)-1,4-dimethyl-1H-pyrrolo[2,3-b]pyridine]
12 | < 100 nM | < 100 nM | 1000 to 50000 nM | Cc1ccc(-c2[nH]c3ccc(C4CCN(C(=O)CN(C)C)CC4)cc3c2C(C)C)c2ncnn12 [Example 516, 2-(dimethylamino)-1-(4-(3-isopropyl-2-(5-methyl-[1,2,4]triazolo[1,5-a]pyridin-8-yl)-1H-indol-5-yl)piperidin-1-yl)ethan-1-one]
13 | 100 to 1000 nM | < 100 nM | 1000 to 50000 nM | Cc1nc2cc(-c3[nH]c4ccc(C5CCNCC5)cc4c3C(C)C)cc(C)c2o1 [Example 92, 5-(3-isopropyl-5-(piperidin-4-yl)-1H-indol-2-yl)-2,7-dimethylbenzo[d]oxazole]
14 | < 100 nM | < 100 nM | 1000 to 50000 nM | CCc1c(-c2ccnc3[nH]ncc23)[nH]c2ccc(C3CCN(C(=O)C4CCN(C)CC4)CC3)cc12 [Example 648, (4-(3-ethyl-2-(1H-pyrazolo[3,4-b]pyridin-4-yl)-1H-indol-5-yl)piperidin-1-yl)(1-methylpiperidin-4-yl)methanone]
15 | 1000 to 50000 nM | 1000 to 50000 nM | 1000 to 50000 nM | Cc1cccc2cc(CN3CCC(c4ccc5[nH]c(-c6ccnc7[nH]ncc67)c(C(C)C)c5c4)CC3)c(Cl)nc12 [Example 922, 2-chloro-3-((4-(3-isopropyl-2-(1H-pyrazolo[3,4-b]pyridin-4-yl)-1H-indol-5-yl)piperidin-1-yl)methyl)-8-methylquinoline]
